The text below walks through data of patent US4870160A, “Polypeptides with laminin activity” (Regents of the University of Minnesota, priority 1987, dated 1989).

Peptide text beside a SMILES is read from it.

For experiment [1], the system named is Bovine aortic endothelial cells. The experiment in a line: Aortic endothelial cell adhesion assay (Example 5). The class given is cell-based. The following applies: 0.1; 1.0; and 10.0 μg/per well adsorbed, 120 minutes at 37° C, FIG. 9. Here is the method:
Bovine aortic endothelial cells were isolated according to the following protocol. Aortas were obtained from a local slaughterhouse, washed in cold phosphate buffered saline (PBS) (136 mM NaCl, 2.6 mM KCl, 15.2 mM Na2HP04, pH 7.2) and processed within 2 hours. Crude collagenase (CLS III, 125-145 units per mg dry weight, Cooper Biomedical) was used at 2 mg/ml in Dulbecco's modified Eagle's medium (DMEM) (GIBCO). The vessel was clamped at the distal end, filled with the collagenase-PBS solution and digestion was carried out for 10 minutes. The lumenal contents were harvested, followed by the addition of fresh collagenase for two additional 10-minute periods. The enzyme-cell suspensions were added to an equal volume of DMEM containing 10% fetal bovine serum (FBS) to inhibit the enzyme and spun in a centrifuge at 400×g for 10 minutes. The resulting cell pellet was resuspended in DMEM containing 10% FBS, 100 units/ml of penicillin G, 100 μg/ml of streptomycin and 100 μg/ml of crude fibroblast growth factor. Cells are cultured in 75 cm^2 flasks in a humidified 5% CO2 atmosphere at 37° C. Cultures were fed twice a week with the same medium and cells were used in assays when approximately 75% confluent. Cells were identified as endothelial in nature by characteristic cobblestone morphology, contact inhibition of growth upon reaching confluency, and positive immunofluorescent staining for factor VIII:RAg (Miles Laboratories) [S. Schwartz, In Vitro, 14, 966 (1978)]. Only endothelial cells, megakaryocytes and platelets are known to contain the factor VIII:RAg. This method routinely gives a high yield of endothelial cells with little contamination (less than 5%) by smooth muscle cells, pericytes or fibroblasts as judged by phase contrast microscopy as well as by immunostaining.
Adhesion was measured using 96 well microtiter plates adsorbed with three different amounts (0.1; 1.0; and 10.0 μg/per well) of peptides 9, 11-18, BSA and laminin. Cultures of cells which were 60-80% confluent were metabolically labeled for 24 hours with the addition of 3 mCi/ml of ^3 H-amino acid mixture. On the day of the assay, the cells were harvested by trypsinization, the trypsin was inhibited by the addition of serum, and the cells were washed free of this mixture and resuspended in DMEM buffered with HEPES at pH 7.2. The adhesion medium also contained 2 mg/ml BSA. The cells were adjusted to a concentration of 3-4×10^4 /ml and 100 μls of this cell suspension was added to the wells. The assay mixture was then incubated at 37° C for 120 minutes. […] The solubilized cells were then quantitated using a liquid scintillation counter. […]

For experiment [2], the system named is murine melanoma cells, K-1735-M4. The experiment can be described thus: Cell adhesion assay for M4 cell line (Example 6A). The following applies: FIG. 10. Format: cell-based. Here is the method: Adhesion was measured using 96 well microtiter plates adsorbed with three different amounts (0.1; 1.0; and 10.0 μg/per well) of peptides 9, 11-18, BSA and laminin. Cultures of cells which were 60-80% confluent were metabolically labeled for 24 hours with the addition of 3 mCi/ml of ^3 H-amino acid mixture. On the day of the assay, the cells were harvested by trypsinization, the trypsin was inhibited by the addition of serum, and the cells were washed free of this mixture and resuspended in DMEM buffered with HEPES at pH 7.2. The adhesion medium also contained 2 mg/ml BSA. The cells were adjusted to a concentration of 3-4×10^4 /ml and 100 μls of this cell suspension was added to the wells. The assay mixture was then incubated at 37° C for 120 minutes. At the end of the incubation, the wells were washed with warm PBS containing 10 mM Ca^++, and the adherent population was solubilized with 0.5N NaOH containing 1% sodium dodecyl sulfate. The solubilized cells were then quantitated using a liquid scintillation counter. Each determination was done in triplicate.
Highly metastatic murine melanoma cells, K-1735-M4 were originally provided by Dr. I. J. Fidler of Anderson Hospital, University of Texas Health Sciences Center, Houston, Tex. When the cells were received, a large number of early passage cells were propagated and frozen in liquid nitrogen. […]

On to `CSCC[C@H](NC(=O)CNC(=O)[C@H](CCCCN)NC(=O)[C@H](CCC(=O)O)NC(=O)[C@H](Cc1ccccc1)NC(=O)[C@H](CS)NC(=O)[C@@H](NC(=O)[C@@H]1CCCN1C(=O)[C@H](CCCNC(=N)N)NC(=O)[C@@H]1CCCN1C(=O)[C@H](CC(C)C)NC(=O)[C@@H](NC(=O)[C@@H](NC(=O)[C@H](Cc1ccc(O)cc1)NC(=O)[C@@H](N)CCCNC(=N)N)C(C)C)C(C)C)C(C)C)C(=O)N[C@@H](CC(N)=O)C(=O)N[C@@H](Cc1ccc(O)cc1)C(=O)N[C@H](C(=O)N[C@H](C(=O)N[C@@H](CCCNC(=N)N)C(=O)O)C(C)C)[C@@H](C)O` [Peptide F9] (H-RYVVLPRPVCFEKGMNYTVR-OH), for which, in experiment [1], the endothelial cell adhesion entry is recorded as “potent promoters of endothelial cell adhesion”. In addition, in experiment [2], the cell adhesion entry is listed as “potent promoters of cell adhesion”.

Turning to `CC[C@H](C)[C@H](NC(=O)[C@H](CCCCN)NC(=O)[C@H](CC(C)C)NC(=O)[C@H](C)NC(=O)[C@H](CCCCN)NC(=O)[C@H](C)NC(=O)[C@H](CCCCN)NC(=O)[C@H](CCC(=O)O)NC(=O)[C@H](CC(C)C)NC(=O)[C@H](Cc1ccccc1)NC(=O)[C@H](CCCCN)NC(=O)[C@H](Cc1c[nH]cn1)NC(=O)[C@@H](NC(=O)[C@H](CCCNC(=N)N)NC(=O)[C@H](CC(N)=O)NC(=O)[C@@H](NC(=O)[C@H](CC(C)C)NC(=O)[C@@H](N)CCC(=O)O)[C@@H](C)O)[C@@H](C)O)C(=O)O` [Peptide F13, ELTNRTHKFLEKAKALKI] (H-ELTNRTHKFLEKAKALKI-OH), the endothelial cell adhesion result in experiment [1] is “potent promoters of endothelial cell adhesion”. In experiment [2], the cell adhesion entry is recorded as “potent promoters of cell adhesion”.
